Experimental findings from paper PMC10438916 (Results in chemistry, 2022) are described below.

The target in data set [1] is T1, human sEH (Homo sapiens, UniProt P34913).
T1 sequence (P34913 1-555): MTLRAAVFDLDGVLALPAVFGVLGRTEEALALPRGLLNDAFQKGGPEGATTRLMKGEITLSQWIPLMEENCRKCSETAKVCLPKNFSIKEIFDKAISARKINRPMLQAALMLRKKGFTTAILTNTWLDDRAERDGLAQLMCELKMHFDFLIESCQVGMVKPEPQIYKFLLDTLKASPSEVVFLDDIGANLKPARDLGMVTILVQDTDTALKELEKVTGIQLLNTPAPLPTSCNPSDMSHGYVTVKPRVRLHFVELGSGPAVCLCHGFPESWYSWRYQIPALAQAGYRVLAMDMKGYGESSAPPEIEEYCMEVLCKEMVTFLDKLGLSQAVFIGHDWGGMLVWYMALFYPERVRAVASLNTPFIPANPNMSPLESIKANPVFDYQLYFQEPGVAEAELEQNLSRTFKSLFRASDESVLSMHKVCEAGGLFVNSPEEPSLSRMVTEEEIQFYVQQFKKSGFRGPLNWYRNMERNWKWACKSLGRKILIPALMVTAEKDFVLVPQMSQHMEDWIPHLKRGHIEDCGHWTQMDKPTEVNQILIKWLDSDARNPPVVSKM
Nature of the data set: Determination of inhibitory potency. The data set is classed as biochemical. The note with it: read-out: Human sEH IC50; recombinant affinity purified human sEH, means of three separate experiments.

The nature of data set [2]: Solubility by turbidimetric assay in sodium phosphate buffer. The data set is classed as physicochemical. As to conditions: sodium phosphate buffer pH 7.4, 0.1 M, 1% DMSO.

Values after ≈ are worked out from the molar mass of the structure shown.

For the compound `CC1(C)C2CCC1(C)C(NC(=S)Nc1ccc(F)cc1)C2` [Compound D-3f, D-1-(4-fluorophenyl)-3-(1,7,7-trimethylbicyclo[2.2.1]heptan-2-yl)thiourea], the IC50 (usually the point on the concentration scale where inhibition reaches its midpoint) in data set [1] was 38.3 nM. The Solubility (commonly the concentration that dissolves in the medium under given conditions) in data set [2] came out at 15 ± 5 µM (≈ 4.6 µg/mL).
Consider `CC1(C)C2CCC1(C)C(NC(=S)Nc1cccc(F)c1)C2` [Compound D-3e, D-1-(3-fluorophenyl)-3-(1,7,7-trimethylbicyclo[2.2.1]heptan-2-yl)thiourea], for which the half-maximal inhibitory concentration (IC50) in data set [1] came out at 176 nM. In data set [2], this compound registered a Solubility of 10 ± 5 µM (≈ 3.06 µg/mL).
In the same order, the values of `CC12CCC(C1)C(C)(C)C2NC(=O)Nc1ccccc1Cl` [Compound D-6c, D-1-(2-chlorophenyl)-3-(1,3,3-trimethylbicyclo[2.2.1]heptan-2-yl)urea] are 4810 nM and 40 ± 10 µM (≈ 12.3 µg/mL).
In the same order, the values of `CC1(C)C2CCC1(C)C(NC(=S)Nc1cccc(F)c1)C2` (racemic) [L/D-3e, rac-1-(3-fluorophenyl)-3-(1,7,7-trimethylbicyclo[2.2.1]heptan-2-yl)thiourea] are 126 nM and 10 ± 5 µM (≈ 3.06 µg/mL).
In the same order, the values of `CC12CCC(C1)C(C)(C)C2NC(=O)Nc1cccc(F)c1` [Compound L-6a, L-1-(3-fluorophenyl)-3-(1,3,3-trimethylbicyclo[2.2.1]heptan-2-yl)urea] are 221 nM and 45 ± 10 µM (≈ 13.1 µg/mL).
Regarding `CC12CCC(C1)C(C)(C)C2NC(=S)Nc1cccc(F)c1` [Compound L-6e, L-1-(3-fluorophenyl)-3-(1,3,3-trimethylbicyclo[2.2.1]heptan-2-yl)thiourea], the IC50 in data set [1] was determined as 2980 nM. The Solubility in data set [2] turned out to be 10 ± 5 µM (≈ 3.06 µg/mL).
In the same order, the values of `CC1(C)C2CCC1(C)C(NC(=S)Nc1ccc(F)cc1)C2` [Compound L-3f, L-1-(4-fluorophenyl)-3-(1,7,7-trimethylbicyclo[2.2.1]heptan-2-yl)thiourea] are 31 nM and 15 ± 5 µM (≈ 4.6 µg/mL).
In the same order, the values of `CC1(C)C2CCC1(C)C(NC(=S)Nc1ccc(F)cc1)C2` (racemic) [L/D-3f, rac-1-(4-fluorophenyl)-3-(1,7,7-trimethylbicyclo[2.2.1]heptan-2-yl)thiourea] are 33.5 nM and 15 ± 5 µM (≈ 4.6 µg/mL).
In the same order, the values of `CC1(C)C2CCC1(C)C(NC(=O)Nc1ccc(F)cc1)C2` [Compound D-3b, D-1-(4-fluorophenyl)-3-(1,7,7-trimethylbicyclo[2.2.1]heptan-2-yl)urea] are 8.2 nM and 65 ± 15 µM (≈ 18.9 µg/mL).
As to `CC12CCC(C1)C(C)(C)C2NC(=O)Nc1cccc(Cl)c1` [Compound D-6d, D-1-(3-chlorophenyl)-3-(1,3,3-trimethylbicyclo[2.2.1]heptan-2-yl)urea], the IC50 in data set [1] came out at 111 nM. For the same compound, the Solubility in data set [2] was 40 ± 10 µM (≈ 12.3 µg/mL).
Consider `CC1(C)C2CCC1(C)C(NC(=O)Nc1cccc(F)c1)C2` [Compound D-3a, D-1-(3-fluorophenyl)-3-(1,7,7-trimethylbicyclo[2.2.1]heptan-2-yl)urea], for which the IC50 in data set [1] amounted to 2.8 nM. In data set [2], this compound registered a Solubility of 50 ± 10 µM (≈ 14.5 µg/mL).
As to `CC12CCC(C1)C(C)(C)C2NC(=O)Nc1cccc(F)c1` [Compound D-6a, D-1-(3-fluorophenyl)-3-(1,3,3-trimethylbicyclo[2.2.1]heptan-2-yl)urea], the IC50 in data set [1] was determined as 230 nM. In data set [2], this compound showed a Solubility of 45 ± 10 µM (≈ 13.1 µg/mL).
In the same order, the values of `CC1(C)C2CCC1(C)C(NC(=O)Nc1cccc(Cl)c1)C2` [Compound D-3d, D-1-(3-chlorophenyl)-3-(1,7,7-trimethylbicyclo[2.2.1]heptan-2-yl)urea] are 1.7 nM and 35 ± 15 µM (≈ 10.7 µg/mL).
For `CC1(C)C2CCC1(C)C(NC(=S)Nc1cccc(F)c1)C2` [Compound L-3e, L-1-(3-fluorophenyl)-3-(1,7,7-trimethylbicyclo[2.2.1]heptan-2-yl)thiourea], in data set [1], the half-maximal inhibitory concentration (IC50) was determined as 56.1 nM. Also, the Solubility in data set [2] turned out to be 10 ± 5 µM (≈ 3.06 µg/mL).
In the same order, the values of `CC12CCC(C1)C(C)(C)C2NC(=O)Nc1ccc(F)cc1` [Compound D-6b, D-1-(4-fluorophenyl)-3-(1,3,3-trimethylbicyclo[2.2.1]heptan-2-yl)urea] are 367 nM and 65 ± 15 µM (≈ 18.9 µg/mL).
In the same order, the values of `CC12CCC(C1)C(C)(C)C2NC(=S)Nc1ccc(F)cc1` [Compound L-6f, L-1-(4-fluorophenyl)-3-(1,3,3-trimethylbicyclo[2.2.1]heptan-2-yl)thiourea] are 4230 nM and 15 ± 5 µM (≈ 4.6 µg/mL).
In the same order, the values of `CC12CCC(C1)C(C)(C)C2NC(=S)Nc1ccc(F)cc1` [Compound D-6f, D-1-(4-fluorophenyl)-3-(1,3,3-trimethylbicyclo[2.2.1]heptan-2-yl)thiourea] are 6080 nM and 15 ± 5 µM (≈ 4.6 µg/mL).
For the compound `CC12CCC(C1)C(C)(C)C2NC(=O)Nc1cccc(Cl)c1` [Compound L-6d, L-1-(3-chlorophenyl)-3-(1,3,3-trimethylbicyclo[2.2.1]heptan-2-yl)urea], the IC50 in data set [1] came out at 166 nM. The Solubility in data set [2] came out at 40 ± 10 µM (≈ 12.3 µg/mL).
In the same order, the values of `CC1(C)C2CCC1(C)C(NC(=O)Nc1cccc(F)c1)C2` (racemic) [L/D-3a, rac-1-(3-fluorophenyl)-3-(1,7,7-trimethylbicyclo[2.2.1]heptan-2-yl)urea] are 1.5 nM and 50 ± 10 µM (≈ 14.5 µg/mL).
In the same order, the values of `CC12CCC(C1)C(C)(C)C2NC(=O)Nc1ccc(F)cc1` [Compound L-6b, L-1-(4-fluorophenyl)-3-(1,3,3-trimethylbicyclo[2.2.1]heptan-2-yl)urea] are 412 nM and 65 ± 15 µM (≈ 18.9 µg/mL).
In the same order, the values of `CC1(C)C2CCC1(C)C(NC(=O)Nc1ccccc1Cl)C2` [Compound D-3c, D-1-(2-chlorophenyl)-3-(1,7,7-trimethylbicyclo[2.2.1]heptan-2-yl)urea] are 69.6 nM and 30 ± 10 µM (≈ 9.21 µg/mL).
Turning to `CC1(C)C2CCC1(C)C(NC(=O)Nc1ccccc1Cl)C2` (racemic) [L/D-3c, rac-1-(2-chlorophenyl)-3-(1,7,7-trimethylbicyclo[2.2.1]heptan-2-yl)urea], the IC50 in data set [1] stood at 85 nM. The compound also registered a Solubility in data set [2] of 30 ± 10 µM (≈ 9.21 µg/mL).
In the same order, the values of `CC1(C)C2CCC1(C)C(NC(=O)Nc1cccc(F)c1)C2` [Compound L-3a, L-1-(3-fluorophenyl)-3-(1,7,7-trimethylbicyclo[2.2.1]heptan-2-yl)urea] are 0.7 nM and 50 ± 10 µM (≈ 14.5 µg/mL).
In the same order, the values of `CC1(C)C2CCC1(C)C(NC(=O)Nc1cccc(Cl)c1)C2` (racemic) [L/D-3d, rac-1-(3-chlorophenyl)-3-(1,7,7-trimethylbicyclo[2.2.1]heptan-2-yl)urea] are 1.6 nM and 35 ± 15 µM (≈ 10.7 µg/mL).
Turning to `CC1(C)C2CCC1(C)C(NC(=O)Nc1ccccc1Cl)C2` [Compound L-3c, L-1-(2-chlorophenyl)-3-(1,7,7-trimethylbicyclo[2.2.1]heptan-2-yl)urea], the half-maximal inhibitory concentration (IC50) in data set [1] turned out to be 387 nM. This compound also had a Solubility in data set [2] of 30 ± 10 µM (≈ 9.21 µg/mL).
In the same order, the values of `CC1(C)C2CCC1(C)C(NC(=O)Nc1ccc(F)cc1)C2` [Compound L-3b, L-1-(4-fluorophenyl)-3-(1,7,7-trimethylbicyclo[2.2.1]heptan-2-yl)urea] are 4 nM and 65 ± 15 µM (≈ 18.9 µg/mL).
In the same order, the values of `CC1(C)C2CCC1(C)C(NC(=O)Nc1ccc(F)cc1)C2` (racemic) [L/D-3b, rac-1-(4-fluorophenyl)-3-(1,7,7-trimethylbicyclo[2.2.1]heptan-2-yl)urea] are 5.1 nM and 65 ± 15 µM (≈ 18.9 µg/mL).
In the same order, the values of `CC1(C)C2CCC1(C)C(NC(=O)Nc1cccc(Cl)c1)C2` [Compound L-3d, L-1-(3-chlorophenyl)-3-(1,7,7-trimethylbicyclo[2.2.1]heptan-2-yl)urea] are 1.5 nM and 35 ± 15 µM (≈ 10.7 µg/mL).
In the case of `CC12CCC(C1)C(C)(C)C2NC(=S)Nc1cccc(F)c1` [Compound D-6e, D-1-(3-fluorophenyl)-3-(1,3,3-trimethylbicyclo[2.2.1]heptan-2-yl)thiourea], in data set [1], the IC50 is 6480 nM. The compound also displayed a Solubility in data set [2] of 10 ± 5 µM (≈ 3.06 µg/mL).
In the same order, the values of `CC12CCC(C1)C(C)(C)C2NC(=O)Nc1ccccc1Cl` [Compound L-6c, L-1-(2-chlorophenyl)-3-(1,3,3-trimethylbicyclo[2.2.1]heptan-2-yl)urea] are 1470 nM and 40 ± 10 µM (≈ 12.3 µg/mL).
